Measured values reported in patent publication US7595401B2, “Therapeutic compounds and their use in cancer” (Myriad Pharmaceuticals, Inc., priority 2006, dated 2009).

system: purified human Hsp90; assay: Binding Assay: fluorescence polarization with BODIPY-labeled geldanamycin; conditions: 5 μM compound, BODIPY-GM 10 nM, Hsp90 30 nM
How it was run: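 Compounds in 2% DMSO final compete with 10 nM BODIPY-GM for 30 nM purified human Hsp90, incubated overnight at room temperature in pH 7.3 HEPES buffer containing Na2MoO4 and DTT. Polarization (mP, ex/em 485/530) normalized to DMSO gives percent inhibition; autofluorescence-confounded data excluded.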

SMILES	% Inhibition at 5 μM Compound Concentration [%]
Nc1ncnc2c1nc(Sc1cc(OC(F)(F)F)ccc1OC1CCCC1)n2CCc1ccccc1Cl [Example 329, 9-[2-(2-Chlorophenyl)ethyl]-8-{[2-(cyclopentyloxy)-5-(trifluoromethoxy)phenyl]thio}-9H-purin-6-amine]	25.0
Cc1ncsc1CCn1cnc(N)c2nc(Sc3cc4c(cc3Br)OCO4)nc1-2 [Example 331, 8-[(6-Bromo-1,3-benzodioxol-5-yl)thio]-3-[2-(4-methyl-1,3-thiazol-5-yl)ethyl]-3H-purin-6-amine]	25.0
CC(C)(NCCn1cnc(N)c2nc(Sc3cc4c(cc3Br)OCO4)nc1-2)c1ccccn1 [Example 333, 8-[(6-Bromo-1,3-benzodioxol-5-yl)thio]-3-{2-[(1-methyl-1-pyridin-2-ylethyl)amino]ethyl}-3H-purin-6-amine]	43.0
COc1ccc(OC)c(Sc2nc3c(N)ncn(CCn4ccnc4)c-3n2)c1 [Example 336, 8-[(2,5-Dimethoxyphenyl)thio]-3-[2-(1H-imidazol-1-yl)ethyl]-3H-purin-6-amine]	13.0
CCOC(=O)N1CCCCC1CCn1cnc(N)c2nc(Sc3cc(OC)ccc3OC)nc1-2 (centres unmarked) [Example 338, 2-{2-[6-amino-8-(2,5-dimethoxy-phenylsulfanyl)-purin-3-yl]-ethyl}-piperidine-1-carboxylic acid ethyl ester]	0
CCOC(=O)N1CCCCC1CCn1cnc(N)c2nc(Sc3cc4c(cc3Br)OCO4)nc1-2 (centres unmarked) [Example 340, Ethyl 2-(2-{6-amino-8-[(6-bromo-1,3-benzodioxol-5-yl)thio]-3H-purin-3-carboxylate]	23
COc1ccc(OC)c(Sc2nc3c(N)ncn(CCC4CCN(C(=O)OC(C)(C)C)CC4)c-3n2)c1 [Example 343, tert-Butyl 4-(2-{6-amino-8-[(2,5-dimethoxyphenyl)thio]-3H-purin-3-yl}ethyl)piperidine-1-carboxylate]	0
CC(C)(C)OC(=O)N1CCC(CCn2cnc(N)c3nc(Sc4cc5c(cc4Br)OCO5)nc2-3)CC1 [Example 344, tert-Butyl 4-(2-{6-amino-8-[(6-bromo-1,3-benzodioxol-5-yl)thio]-3H-purin-3-yl}ethyl)piperidine-1-carboxylate]	22
CC(C)(C)OC(=O)N1CCCC(CCn2cnc(N)c3nc(Sc4cc5c(cc4Br)OCO5)nc2-3)C1 (centres unmarked) [Example 345, tert-Butyl 3-(2-{6-amino-8-[(6-bromo-1,3-benzodioxol-5-yl)thio]-3H-purin-3-yl}ethyl)piperidine-1-carboxylate]	3
COc1ccc(OC)c(Sc2nc3c(N)ncn(CCC4CCOCC4)c-3n2)c1 [Example 349, 8-[(2,5-Dimethoxyphenyl)thio]-3-[2-(tetrahydro-2H-pyran-4-yl)ethyl]-3H-purin-6-amine]	12
Nc1ncn(CCC2CCOCC2)c2nc(Sc3cc4c(cc3Br)OCO4)nc1-2 [Example 350, 8-[(6-Bromo-1,3-benzodioxol-5-yl)thio]-3-[2-(tetrahydro-2H-pyran-4-yl)ethyl]-3H-purin-6-amine]	25
CC1(C)CC(CCn2cnc(N)c3nc(Sc4cc5c(cc4Br)OCO5)nc2-3)CC(C)(C)N1 [Example 351, 8-[(6-Bromo-1,3-benzodioxol-5-yl)thio]-3-[2-(2,2,6,6-tetramethylpiperidin-4-yl)ethyl]-3H-purin-6-amine]	8

Second part, the molecule after the results:

% Inhibition at 5 μM Compound Concentration [%]	SMILES
35	CN1CCCC1CCn1cnc(N)c2nc(Sc3cc4c(cc3Br)OCO4)nc1-2 (centres unmarked) [Example 352, 8-[(6-Bromo-1,3-benzodioxol-5-yl)thio]-3-[2-(1-methylpyrrolidin-2-yl)ethyl]-3H-purin-6-amine]
0	Nc1ncn(CCC23CC4CC(CC(C4)C2)C3)c2nc(Sc3cc4c(cc3Br)OCO4)nc1-2 [Example 357, 3-[2-(1-Adamantyl)ethyl]-8-[(6-bromo-1,3-benzodioxol-5-yl)thio]-3H-purin-6-amine]
3	COc1ccc(OC)c(Sc2nc3c(N)ncn(CCC4CCN(C=O)CC4)c-3n2)c1 [Example 359, 4-(2-{6-Amino-8-[(2,5-dimethoxyphenyl)thio]-3H-purin-3-yl}ethyl)piperidine-1-carbaldehyde]
5	COc1ccc(OC)c(Sc2nc3c(N)ncn(CCC4CC(C)(C)NC(C)(C)C4)c-3n2)c1 [Example 360, 8-[(2,5-Dimethoxyphenyl)thio]-3-[2-(2,2,6,6-tetramethylpiperidin-4-yl)ethyl]-3H-purin-6-amine]

same assay, conditions: BODIPY-GM 10 nM, Hsp90 30 nM

SMILES	IC50 [nM]
Nc1ncnc2c1nc(Sc1cc(OC(F)(F)F)ccc1OC1CCCC1)n2CCc1ccccc1 [Example 328, 8-{[2-(Cyclopentyloxy)-5-(trifluoromethoxy)phenyl]thio}-9-(2-phenylethyl)-9H-purin-6-amine]	> 8000
Cc1ncsc1CCn1c(Sc2cc3c(cc2Br)OCO3)nc2c(N)ncnc21 [Example 330, 8-[(6-Bromo-1,3-benzodioxol-5-yl)thio]-9-[2-(4-methyl-1,3-thiazol-5-yl)ethyl]-9H-purin-6-amine]	70
COc1ccc(OC)c(Sc2nc3c(N)ncnc3n2CCNC(C)(C)c2ccccn2)c1 [Example 334, 8-[(2,5-Dimethoxyphenyl)thio]-9-{2-[(1-methyl-1-pyridin-2-ylethyl)amino]ethyl}-9H-purin-6-amine]	2300
COc1ccc(OC)c(Sc2nc3c(N)ncnc3n2CCn2ccnc2)c1 [Example 335, 8-[(2,5-Dimethoxyphenyl)thio]-9-[2-(1H-imidazol-1-yl)ethyl]-9H-purin-6-amine]	3000
CCOC(=O)N1CCCCC1CCn1c(Sc2cc(OC)ccc2OC)nc2c(N)ncnc21 (centres unmarked) [Example 337, 2-{2-[6-Amino-8-(2,5-dimethoxy-phenylsulfanyl)-purin-9-yl]-ethyl}-piperidine-1-carboxylic acid ethyl ester]	> 8000
CCOC(=O)N1CCCCC1CCn1c(Sc2cc3c(cc2Br)OCO3)nc2c(N)ncnc21 (centres unmarked) [Example 339, Ethyl 2-(2-{6-amino-8-[(6-bromo-1,3-benzodioxol-5-yl)thio]-9H-purin-9-yl}ethyl)piperidine-1-carboxylate]	115
CC(C)(C)OC(=O)N1CCC(CCn2c(Sc3cc4c(cc3Br)OCO4)nc3c(N)ncnc32)CC1 [Example 341, tert-Butyl 4-(2-{6-amino-8-[(6-bromo-1,3-benzodioxol-5-yl)thio]-9H-purin-9-yl}ethyl)piperidine-1-carboxylate]	200
COc1ccc(OC)c(Sc2nc3c(N)ncnc3n2CCC2CCN(C(=O)OC(C)(C)C)CC2)c1 [Example 342, tert-Butyl 4-(2-{6-amino-8-[(2,5-dimethoxyphenyl)thio]-9H-purin-9-yl}ethyl)piperidine-1-carboxylate]	19000
CC(C)(C)OC(=O)N1CCCC(CCn2c(Sc3cc4c(cc3Br)OCO4)nc3c(N)ncnc32)C1 (centres unmarked) [Example 346, tert-Butyl 3-(2-{6-amino-8-[(6-bromo-1,3-benzodioxol-5-yl)thio]-9H-purin-9-yl}ethyl)piperidine-1-carboxylate]	325
COc1ccc(OC)c(Sc2nc3c(N)ncnc3n2CCC2CCCN(C(=O)OC(C)(C)C)C2)c1 (centres unmarked) [Example 347, tert-Butyl 3-(2-{6-amino-8-[(2,5-dimethoxyphenyl)thio]-9H-purin-9-yl}ethyl)piperidine-1-carboxylate]	2500
COc1ccc(OC)c(Sc2nc3c(N)ncnc3n2CCC2CCOCC2)c1 [Example 348, 8-[(2,5-Dimethoxyphenyl)thio]-9-[2-(tetrahydro-2H-pyran-4-yl)ethyl]-9H-purin-6-amine]	800

Other lines, results leading:

IC50 [nM]	SMILES
57	Nc1ncnc2c1nc(Sc1cc3c(cc1Br)OCO3)n2CCC1CCOCC1 [Example 353, 8-[(6-Bromo-1,3-benzodioxol-5-yl)thio]-9-[2-(tetrahydro-2H-pyran-4-yl)ethyl]-9H-purin-6-amine]
250	CC1(C)CC(CCn2c(Sc3cc4c(cc3Br)OCO4)nc3c(N)ncnc32)CC(C)(C)N1 [Example 354, 8-[(6-Bromo-1,3-benzodioxol-5-yl)thio]-9-[2-(2,2,6,6-tetramethylpiperidin-4-yl)ethyl]-9H-purin-6-amine]
> 25000	CN1CCCC1CCn1c(Sc2cc3c(cc2Br)OCO3)nc2c(N)ncnc21 (centres unmarked) [Example 355, 8-[(6-Bromo-1,3-benzodioxol-5-yl)thio]-9-[2-(1-methylpyrrolidin-2-yl)ethyl]-9H-purin-6-amine]
> 25000	Nc1ncnc2c1nc(Sc1cc3c(cc1Br)OCO3)n2CCC12CC3CC(CC(C3)C1)C2 [Example 356, 9-[2-(1-Adamantyl)ethyl]-8-[(6-bromo-1,3-benzodioxol-5-yl)thio]-9H-purin-6-amine]
450	COc1ccc(OC)c(Sc2nc3c(N)ncnc3n2CCC2CCN(C=O)CC2)c1 [Example 358, 4-(2-{6-Amino-8-[(2,5-dimethoxyphenyl)thio]-9H-purin-9-yl}ethyl)piperidine-1-carbaldehyde]
2900	COc1ccc(OC)c(Sc2nc3c(N)ncnc3n2CCC2CC(C)(C)NC(C)(C)C2)c1 [Example 361, 8-[(2,5-Dimethoxyphenyl)thio]-9-[2-(2,2,6,6-tetramethylpiperidin-4-yl)ethyl]-9H-purin-6-amine]
> 25000	CCOc1ccc(OCC)c(Sc2nc3c(N)ncnc3n2CCC2CCN(C(=O)OC(C)(C)C)CC2)c1 [Example 362, tert-Butyl 4-(2-{6-amino-8-[(2,5-diethoxyphenyl)thio]-9H-purin-9-yl}ethyl)piperidine-1-carboxylate]
300	Nc1ncnc2c1nc(Sc1cc3c(cc1Br)OCO3)n2CCC1CCN(C=O)CC1 [Example 363, 4-(2-{6-Amino-8-[(6-bromo-1,3-benzodioxol-5-yl)thio]-9H-purin-9-yl}ethyl)piperidine-1-carbaldehyde]
